{"source": "patent US20110311484A1", "about": "“STRAINS OF […] LEUKEMIA-RELATED VIRUS AND METHODS FOR DETECTION THEREOF” (Whittemore Peterson Institute for Neuro-Immune Disease, priority 2010, published 2011)", "system": "XMRV", "assay": "XMRV Env expression in PHA/IL-2 activated PBMC cultures, staining with SFFV env moAb", "type": "cell-based", "settings": "PBMCs of XMRV-infected individuals, PHA/IL-2 activated for three days; inhibitor (50 nM AZT, FIG. 3) added prior to activation", "description": "XMRV RNA could not always be detected in the PBMCs of subjects from which infectious virus had been isolated from plasma. […] We have observed that culturing these PBMCs under conditions that induce activation of T cells increases the frequency of XMRV detected by RT-PCR in the cells maintained in culture. […] To biologically increase the level of XMRV and increase the probability that XMRV sequences could be detected by PCR, PBMCs were cultured under conditions that activated T cells for 7-10 days, the RNA isolated, and nested RT-PCR analysis performed as described above.", "data": [{"compound": "Cc1cn([C@H]2C[C@H](N=[N+]=[N-])[C@@H](CO)O2)c(=O)[nH]c1=O", "note": "[reverse transcriptase inhibitor, zidovudine]", "values": [{"measurement": "XMRV expression, as measured by cell surface expression of Env", "result": "prevents the increase XMRV expression"}]}]}
